From patent US20090220562A1, “Osteogenic and anti-adipogenic oxysterols” (priority 2005, published 2009)

Key:
Assay type in all cases: cell-based, mouse
[1] = test system: M2-10B4 marrow stromal cells; assay: Alkaline phosphatase (ALP) activity assay on whole cell extracts of M2-10B4 marrow stromal cells; conditions: for induction of alkaline phosphatase activity: 10 μM oxysterol, 3 days, osteogenic medium
Method: (§1) Cells: M2-10B4 mouse marrow stromal cell line obtained from American Type Culture Collection (ATCC, Rockville, Md., U.S.A.) was derived from bone marrow stromal cells of a (C57BL/6J x C3H/HeJ) Fl mouse, and support human and murine myelopoiesis in long-term cultures (as per ATCC) and have the ability to differentiate into osteoblastic and adipocytic cells. Unless specified, these cells were cultured in RPMI 1640 containing 10% heat-inactivated FBS, and supplemented with 1 mM sodium pyruvate, 100 U/ml penicillin, and 100 U/ml streptomycin (all from Irvine Scientific).
Cells were always treated at 90% confluence. […]
Next, a combination of 22R and 20S oxysterols (RS, 2.5 μM each) were added in the presence or absence of SC as indicated. After 3 days, ALP activity was measured as described earlier. […] (B) M2 cells were treated as described in (A) and after 10 days matrix mineralization in cultures was quantified by a ^45Ca incorporation assay as described earlier. […] (C) M2 cells were pretreated with 20 μM SC for 4 hours, followed by the addition of RS in the presence or absence of SC as described above. After 8 days, total RNA was isolated and analyzed for osteocalcin (Osc) and […] expression by Northern blotting as previously described. Data from densitometric analysis of the Northern blot is shown in (D) as the average of duplicate samples, normalized to 18S rRNA. (E) M2 cells at confluence were pretreated for 2 hours with control vehicle (C), or PLA2 inhibitors ACA (25 μM) and AACOCF3 (AAC, 20 μM), in osteogenic medium. Next, a combination of 22R and 20S oxysterols (RS, 2.5 μM) was added in the presence or absence of the inhibitors as indicated. After 3 days, ALP activity was measured as previously described. […] (F) M2 cells were treated as described in (E). After 10 days, matrix mineralization in cultures was quantified using a ^45Ca incorporation assay as previously described. […]

[2] = test system: M2-10B4 marrow stromal cells; assay: Matrix mineralization (45Ca incorporation assay, von Kossa staining) in M2-10B4 marrow stromal cells; conditions: for induction of mineralization by individual oxysterols: 0.5 to less than 10 μM, as many as 14 days (data not shown)
Method: as §1
(§2) Von Kossa and oil red O staining—Matrix mineralization in cell monolayers was detected by silver nitrate staining as previously described. Oil red O staining for detection of adipocytes was performed as previously described.
^45Ca incorporation assay—Matrix mineralization in cell monolayers was quantified using the ^45Ca incorporation assay as previously described.
After 14 days, mineralization was identified by a von Kossa staining, which appears black. FIG. 3C is a depiction of von Kossa staining of M2 cells exposed to various conditions.
After 14 days, matrix mineralization in cultures was quantified using a ^45Ca incorporation assay.
Next, a combination of 22R and 20S oxysterols (RS, 2.5 μM each) were added in the presence or absence of SC as indicated. After 3 days, ALP activity was measured as described earlier. […] (B) M2 cells were treated as described in (A) and after 10 days matrix mineralization in cultures was quantified by a ^45Ca incorporation assay as described earlier. […] (C) M2 cells were pretreated with 20 μM SC for 4 hours, followed by the addition of RS in the presence or absence of SC as described above. After 8 days, total RNA was isolated and analyzed for osteocalcin (Osc) and […] expression by Northern blotting as previously described. Data from densitometric analysis of the Northern blot is shown in (D) as the average of duplicate samples, normalized to 18S rRNA. (E) M2 cells at confluence were pretreated for 2 hours with control vehicle (C), or PLA2 inhibitors ACA (25 μM) and AACOCF3 (AAC, 20 μM), in osteogenic medium. Next, a combination of 22R and 20S oxysterols (RS, 2.5 μM) was added in the presence or absence of the inhibitors as indicated. After 3 days, ALP activity was measured as previously described. […] (F) M2 cells were treated as described in (E). After 10 days, matrix mineralization in cultures was quantified using a ^45Ca incorporation assay as previously described. Results from a representative of three experiments are shown, reported as the mean of quadruplicate determinations ±SD, normalized to protein concentration (p<0.01 for RS vs. RS+ACA and RS+AAC).
(A) M2 cells at confluence were pretreated for four hours with RPMI containing 1% FBS, followed by treatment with control vehicle or 5 μM 20S oxysterol for 1, 4, or 8 hours. Next total cell extracts were prepared and analyzed for levels of native or phosphorylated ERK (pERK) using specific antibodies as previously described. Data from a representative of four experiments are shown, each treatment shown in duplicate samples. (B) M2 cells at confluence were pretreated for 2 hours with control vehicle (C) or 20 μM PD98059 (PD) in osteogenic medium as previously described. Next, a combination of 22R and 20S oxysterols (RS, 5 μM each) were added to appropriate wells as indicated. After 10 days of incubation, matrix mineralization was quantified by the ^45Ca incorporation assay as previously described. […] (C) M2 cells at confluence were pretreated for 2 hours with 20 µM PD98059 (PD) in RPMI containing 5% FBS. Next, the cells were treated with control vehicle (C), 10 μM troglitazone (Tro), or 10 μM of 20S or 22S oxysterols, alone or in combination as indicated. After 10 days, adipocytes were visualized by oil Red O staining and quantified by light microscopy as previously described. […]

M2 cells = assay: Troglitazone-induced adipogenesis in M2 cells (oil Red O staining, adipocyte count); conditions: Tro 10 μM, oxysterol 10 μM, 10 days, alone or in combination
Method: as §2
Test 1: M2 cells at 90% confluence were treated with vehicle (C), PPAR-γ activator, troglitazone 10 μM (Tro), alone or in combination with 10 μM oxysterols 20S-, 22R-, or 25S-hydroxycholesterol. After 8 days, adipocytes were identified by oil Red 0 staining and quantified by counting under a phase contrast microscope. FIG. 6A is a bar graph depicting the effect of oxysterols on reducing adipogenesis of MSC.
Test 2: (A) M2 cells at confluence were treated in RPMI containing 10% FBS with control vehicle or 10 μM troglitazone (Tro) in the absence or presence of 10 μM 20S or 22S-hydroxycholesterol. After 10 days, adipocytes were visualized by oil Red O staining and quantified by light microscopy, shown in (B). […] (C) M2 cells were treated at confluence with 10 μM Tro, alone or in combination with 10 μM 20S oxysterol. After 10 days, total RNA was isolated and analyzed for lipoprotein lipase (LPL), adipocyte P2 gene (aP2) or 18S rRNA expression by Northern blotting as described (Ref). Data from densitometric analysis of the Northern blot is shown in (D) as the average of duplicate samples, normalized to 18S rRNA.

SMILES	induction of alkaline phosphatase activity [1]	induction of mineralization by individual oxysterols [2]	effect on troglitazone-induced adipogenesis (M2 cells)	alkaline phosphatase (ALP) activity ([1]; doses of 5-15 μM)	mineralization ([2]; doses of 5-15 μM)
CC(C)CC[C@H](O)[C@@H](C)[C@H]1CC[C@H]2[C@@H]3CC=C4C[C@@H](O)CC[C@]4(C)[C@H]3CC[C@]12C [22S-hydroxycholesterol]	induced	unable to induce	inhibited adipogenesis		
CC(C)CCC[C@](C)(O)[C@H]1CC[C@H]2[C@@H]3CC=C4C[C@@H](O)CC[C@]4(C)[C@H]3CC[C@@]21C [20S-hydroxycholesterol]	induced	unable to induce	inhibited adipogenesis	induction	induction
CC(C)CC[C@@H](O)[C@@H](C)[C@H]1CC[C@H]2[C@@H]3CC=C4C[C@@H](O)CC[C@]4(C)[C@H]3CC[C@]12C [22R-hydroxycholesterol]	induced	unable to induce	inhibited adipogenesis		
